From patent US10195189B2, “2-phenethenyltetrahydro isoquinolines useful as anti-HIV compounds” (priority 2014, dated 2019)
Where two headings read alike, the source gives them in different places.

Key:
[1] = system: HIV-1 NL4-3 viral clone expressing Renilla luciferase; experiment: microbe, parasite or virus in culture; format: cell-based
Outline: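 MT-2 cells (2×10^4/well) were infected at MOI 0.027 with Renilla-luciferase HIV-1 NL4-3 alongside 3-fold compound dilutions for 96 h. Spread was read by EnduRen luminescence and supernatant infectivity on TZM-bl (48 h, MUG fluorescence). Mock-infected cytotoxicity used AlamarBlue. % inhibition versus solvent was fitted by 4-parameter logistic (0–100% constrained) for EC50/CC50.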

[2] = system: MT-2 cells; experiment: Cytotoxicity assay (AlamarBlue) in mock infected MT-2 cells; format: cell-based, human
Procedure: (§1) The present assay was used to screen candidate antiviral compounds by quantification of virus spread and production over several rounds of infection in vitro. MT-2, a HIV-1 permissive human T-cell line, was seeded in microtiter plates and was simultaneously treated with serially diluted compound and inoculated with a HIV-1 NL4-3 viral clone engineered to express Renilla luciferase in place of Net Following treatment, the culture was incubated for 96 hours. After the incubation, media was collected and used to estimate relative infectivity on the indicator cell line, TZM-bl. Additionally, viral spread was quantified by measuring luciferase activity via a commercially available luciferase substrate. In parallel, MT-2 cells were seeded and inoculated with mock virus in the presence of serially diluted compound. Compound toxicity was quantified 96 hours after treatment with AlamarBlue.
(§2) MT-2 (NIH Aids reagent program 237) cells were grown and maintained in an incubator at 37° C. with 5% CO2 using a basal medium of RPMI-1640 supplemented with 10% FBS. Cells were seeded in 100 μl at 2×10^4 cells/well in white walled 96-well microtiter plates. Candidate compounds were 3-fold serially diluted in the appropriate solvent. Solvent without compound was used as a no drug reference. Cells were inoculated at a multiplicity of 0.027 with an HIV-1 NL4-3 virus stock engineered to express Renilla luciferase in place of Net Diluted virus stock was first added to serially diluted compound. Compound and virus were delivered to cells in an equal volume (100 μl) and treated cultures were returned to the incubator for 96 hours. In parallel, plates for cytotoxicity estimates were prepared in the same way except cells were plated in clear walled 96-well microtiter plates and were mock infected.
(§3) At 96 hours post treatment, 20 μl AlamarBlue proliferation reagent was added to 200 μl treated and mock infected cultures and incubated for 3 hours at 37° C. with 5% CO2 then read at 545, 590 nm on fluorescence plate reader (Biotek).
(§4) For all assays, data was imported into Accelrys Assay Explorer 3.3. In Assay Explorer, % inhibition (antiviral or cytotoxicity) was calculated using the solvent control as a reference by the following equation: 1−(SignalCompound/SignalReference). The % Inhibition and compound concentration data was fitted using the following 4-parameter logistic model (Assay Explorer model 42):
(§5) [formula] where X is compound concentration, Y is % inhibition, D is the maximum % Inhibition (constrained to 100%), C is IC50 value or inflection point, B is the hill slope, and A is the minimum % inhibition (constrained to 0%). The IC50 value is reported as the EC50 or CC50 depending on the assay endpoint. EC50 represents the effective concentration at which virus replication is inhibited by 50 percent. CC50 represents the concentration that results in the death of 50 percent of the host cells. The selectivity or therapeutic index (SI or TI), is the ratio of CC50 over EC50 and represents the relative effectiveness in inhibiting viral replication compared to inducing cell death.

[3] = as above; format: cell-based, human; conditions: human
Procedure: as §1, §2, §3, §4, §5

[4] = Human immunodeficiency virus 1, NL43, MT2, 96 h
[5] = mock infected MT-2 cells, 96 hours, AlamarBlue, read-out: CC50

Row | Structure (SMILES) | EC50 [1, 4] [µM] | CC50 ([2]; human, 96 h) [µM] | further results
1 | COc1cc(C)c(/C=C/C2c3cc(OC)c(OCc4ccccc4)cc3CCN2C(=O)c2ccnc(N)c2)cc1OCc1ccccc1 (stereo not shown) [Example N, (2-amino-4-pyridyl)-[6-benzyloxy-1-[(E)-2-(5-benzyloxy-4-methoxy-2-methyl-phenyl)vinyl]-7-methoxy-3,4-dihydro-1H-isoquinolin-2-yl]methanone] | 2.03 | 100 | 
2 | COc1cc(C)c(/C=C/C2c3cc(OC)c(OCc4ccccc4)cc3CCN2C(=O)c2cnccn2)cc1OCc1ccccc1 (stereo not shown) [Example H, [6-Benzyloxy-1-[(E)-2-(5-benzyloxy-4-methoxy-2-methyl-phenyl)vinyl]-7-methoxy-3,4-dihydro-1H-isoquinolin-2-yl]-pyrazin-2-yl-methanone] | 4.48 | 100 | 
3 | COc1ncc(/C=C/C2NCCc3cc(OCc4ccccc4)c(OC)cc32)cn1 (stereo not shown) [DD, (E)-(benzyloxy)-7-methoxy-1-(2-(2-methoxypyrimidin-5-yl)vinyl)-1,2,3,4-tetrahydroisoquinoline] | 11.1 | 100 | 
4 | COc1cc(C)c(/C=C/C2c3cc(OC)c(OCc4ccccc4)cc3CCN2C(=O)c2cccc(N)n2)cc1OCc1ccccc1 (stereo not shown) [Example F, (6-Amino-2-pyridyl)-[6-benzyloxy-1-[(E)-2-(5-benzyloxy-4-methoxy-2-methyl-phenyl)vinyl]-7-methoxy-3,4-dihydro-1H-isoquinolin-2-yl]methanone] | 5.05 | 100 | 
5 | COc1cc2c(cc1OCc1ccccc1)CCNC2/C=C/c1ccc2cn[nH]c2c1 (stereo not shown) [BT, 6-Benzyloxy-1-[(E)-2-(1H-indazol-6-yl)vinyl]-7-methoxy-1,2,3,4-tetrahydroisoquinoline] |  |  | EC50 ([1]; MT-2 cells infected with HIV-1 NL4-3, 96 hours, read-out: EC50): 0.613 µM; CC50 [2]: 7.98 µM
6 | COc1cc(C)c(/C=C/C2c3cc(OC)c(OCc4ccccc4)cc3CCN2C(=O)c2cccnc2N)cc1OCc1ccccc1 (stereo not shown) [Example K, (2-Amino-3-pyridyl)-[6-benzyloxy-1-[(E)-2-(5-benzyloxy-4-methoxy-2-methyl-phenyl)vinyl]-7-methoxy-3,4-dihydro-1H-isoquinoline-2-yl]methanone] | 2.88 | 100 | 
7 | COc1cc(C)c(/C=C/C2c3cc(OC)c(OCc4ccccc4)cc3CCN2C(=O)c2ccccn2)cc1OCc1ccccc1 (stereo not shown) [Example M, [6-benzyloxy-1-[(E)-2-(5-benzyloxy-4-methoxy-2-methyl-phenyl)vinyl]-7-methoxy-3,4-dihydro-1H-isoquinolin-2-yl]-(2-pyridyl)methanone] | 2.09 | 100 | 
8 | COC(=O)N1CCc2cc(OCc3ccccc3)c(OC)cc2C1/C=C/c1cc(OC)c(OC)cc1C (stereo not shown) [Example I, Methyl 6-benzyloxy-1-[(E)-2-(4,5-dimethoxy-2-methyl-phenyl)vinyl]-7-methoxy-3,4-dihydro-1H-isoquinoline-2-carboxylate] | 4.48 | 100 | 
9 | CCOCc1cc(/C=C/C2NCCc3cc(OCc4ccccc4)c(OC)cc32)ccc1OC (stereo not shown) [EP, (E)-6-(benzyloxy)-1-(3-(ethoxymethyl)-4-methoxystyryl)-7-methoxy-1,2,3,4-tetrahydroisoquinoline] | 0.846 |  | CC50 at 96 h [3]: 4 µM
10 | COc1cc(C)c(/C=C/C2c3cc(OC)c(OCc4ccccc4)cc3CCN2C(=O)c2cccnc2)cc1OCc1ccccc1 (stereo not shown) [Example T, [6-benzyloxy-1-[(E)-2-(5-benzyloxy-4-methoxy-2-methyl-phenyl)vinyl]-7-methoxy-3,4-dihydro-1H-isoquinolin-2-yl]-(3-pyridyl)methanone] | 0.93 | 100 | 
11 | COc1ccc(/C=C/C2NCCc3cc(OCc4ccccc4)c(OC)cc32)c(C(F)(F)F)c1 (stereo not shown) [Example Z, 6-benzyloxy-7-methoxy-1-[(E)-2-[4-methoxy-2-(trifluoromethyl)phenyl]vinyl]-1,2,3,4-tetrahydroisoquinoline] | 0.35 |  | CC50 [2, 5]: 100 µM
12 | COc1cc(C)c(/C=C/C2c3cc(OC)c(OCc4ccccc4)cc3CCN2C(=O)c2ccc(N)nc2)cc1OCc1ccccc1 (stereo not shown) [Example P, (6-amino-3-pyridyl)-[6-benzyloxy-1-[(E)-2-(5-benzyloxy-4-methoxy-2-methyl-phenyl)vinyl]-7-methoxy-3,4-dihydro-1H-isoquinolin-2-yl]methanone] | 1.69 | 100 | 
13 | COc1cc2c(cc1OCc1ccccc1)CCNC2/C=C/c1ccc2c(c1)OC(F)(F)O2 (stereo not shown) [DF, (E)-6-(benzyloxy)-1-(2-(2,2-difluorobenzo[d][1,3]dioxol-5-yl)vinyl)-7-methoxy-1,2,3,4-tetrahydroisoquinoline] | 5.44 |  | 
14 | CCCCOc1cc(/C=C/C2NCCc3cc(OCc4ccccc4)c(OC)cc32)c(C)cc1OC (stereo not shown) [BL, 6-Benzyloxy-1-[(E)-2-(5-butoxy-4-methoxy-2-methyl-phenyl)vinyl]-7-methoxy-1,2,3,4-tetrahydroisoquinoline] | 0.052 |  | 
15 | COc1ccc(/C=C/C2NCCc3cc(OCc4ccccc4)c(OC)cc32)c(F)c1 (stereo not shown) [BR, 6-Benzyloxy-1-[(E)-2-(2-fluoro-4-methoxy-phenyl)vinyl]-7-methoxy-1,2,3,4-tetrahydroisoquinoline] | 1.14 |  | 
16 | COc1cc(C)c(/C=C/C2=NCCc3cc(OCc4ccccc4)c(OC)cc32)cc1OCc1ccccc1 [Example AE, 6-benzyloxy-1-[(E)-2-(5-benzyloxy-4-methoxy-2-methyl-phenyl)vinyl]-7-methoxy-3,4-dihydroisoquinoline] | 0.44 |  | 
17 | COc1cc2c(cc1OCc1ccccc1)CCNC2/C=C/c1cc2ccccc2n1C(=O)OC(C)(C)C (stereo not shown) [CH, tert-Butyl 2-[(E)-2-(6-benzyloxy-7-methoxy-1,2,3,4-tetrahydroisoquinolin-1-yl)vinyl]indole-1-carboxylate] | 0.58 |  | 
18 | COc1cc(C(C)(C)C)c(/C=C/C2NCCc3cc(OCc4ccccc4)c(OC)cc32)cc1OCc1ccccc1 (stereo not shown) [AS, 6-Benzyloxy-1-[(E)-2-(5-benzyloxy-2-tert-butyl-4-methoxy-phenyl)vinyl]-7-methoxy-1,2,3,4-tetrahydroisoquinoline] | 4.22 |  | CC50 [2, 5]: 5.36 µM
19 | COc1cc2c(cc1OCc1ccccc1)CCNC2/C=C/c1ccc(N2CCN(C)CC2)cc1 (stereo not shown) [DW, 6-(Benzyloxy)-7-methoxy-1-[(E)-2-[4-(4-methylpiperazin-1-yl)phenyl]ethenyl]-1,2,3,4-tetrahydroisoquinoline] | 1.24 |  | 
20 | CCOC(=O)c1coc(-c2ccc(/C=C/C3NCCc4cc(OCc5ccccc5)c(OC)cc43)cc2)n1 (stereo not shown) [EE, Ethyl 2-[4-[(E)-2-(6-benzyloxy-7-methoxy-1,2,3,4-tetrahydroisoquinolin-1-yl)vinyl]phenyl]oxazole-4-carboxylate] | 0.99 |  | 
21 | COc1ccccc1/C=C/C1NCCc2cc(OCc3ccccc3)c(OC)cc21 (stereo not shown) [DG, (E)-6-(benzyloxy)-7-methoxy-1-(2-methoxystyryl)-1,2,3,4-tetrahydroisoquinoline] | 2.2 |  | 
22 | COc1cc2c(cc1OCc1ccccc1)CCNC2/C=C/c1ccncc1 (stereo not shown) [AW, 6-Benzyloxy-7-methoxy-1-[(E)-2-(4-pyridyl)vinyl]-1,2,3,4-tetrahydroisoquinoline] | 3.28 |  | 
23 | COc1cc(C)c(/C=C/C2c3cc(OC)c(OCc4ccccc4)cc3CCN2C(N)=O)cc1OCc1ccccc1 (stereo not shown) [Example R, 6-benzyloxy-1-[(E)-2-(5-benzyloxy-4-methoxy-2-methyl-phenyl)vinyl]-7-methoxy-3,4-dihydro-1H-isoquinoline-2-carboxamide] | 1.18 |  | CC50 [2, 5]: 39.3 µM
